Patent publication US7521474B2, “Biologically active lasonolide compounds” (priority 2003, dated 2009)
≈ marks a conversion by molar mass, not a printed value. Where two headings read alike, the source gives them in different places.

Experiments:
Assay type in all cases: cell-based
[1] = system: A549 human lung adenocarcinoma; assay: Antiproliferative MTT assay, A549
Method: (§1) The lasonolide compounds were analyzed as to their effects on proliferation of A549 human lung adenocarcinoma, PANC-1 human pancreatic cancer and NCI-ADR-RES tumor cell lines. A549 human lung adenocarcinoma, PANC-1 pancreatic cancer cells and the NCI/ADR-RES (formerly MCF-7/ADR) human breast cell lines were obtained from the American Type Culture Collection (Rockville, Md.).
(§2) All cell lines are maintained in Roswell Park Memorial Institute (RPMI) medium 1640 supplemented with 100 U/mL penicillin 100 μg/ml streptomycin, 60 μg/ml L-glutamine, 18 mM HEPES, 0.05 mg/mL gentamycin and 10% fetal bovine serum (for the PANC-1 cell line the media is also supplemented with 100 μg/ml sodium pyruvate and 2.5 mg/ml glucose). Cell lines are cultured in plastic tissue culture flasks and kept in an incubator at 37° C. in humidified air containing 5% CO2.
(§3) To assess the antiproliferative effects of agents against the various cell lines, 200 μl cultures (96-well tissue culture plates, Nunc, Denmark) are first established at 3×10^4 cells/ml for adherent lines in tissue culture medium and incubated for 24 hr at 37° C. in 10% CO2 in air in order to allow cells to attach. A volume of 100 μl of medium is removed from each test well and 100 μl of medium containing serial, two-fold dilutions of the test agent is added to each well containing tumor cells. Medium without drug is also added to wells containing tumor cells which serve as no drug controls.
(§4) Positive drug controls are included to monitor drug sensitivity of each of the cell lines. These include varying dilutions of 5-fluorouracil, and doxorubicin. After 72-h exposure, tumor cells are enumerated using 3-[4,5-Dimethylthiazol-2-yl]-2,5-diphenyltetrazolium bromide (MTT) (M. C. Alley, et al., Cancer Res. 48:589, 1988) as follows:
(§5) A volume of 75 μl of warm growth media containing 5 mg/ml MTT is added to each well, cultures returned to the incubator, and left undisturbed for 3 hours. To spectrophotometrically quantitate formation of reduced formazan, plates are centrifuged (900×g, 5 minutes), culture fluids removed by aspiration, and 200 μl of acidified isopropanol (2 ml concentrated HCl/liter isopropanol) added per well. The absorbance of the resulting solutions is measured at 570 nm with a plate reader (Spectra II (Tecan Laboratories). The absorbance of tests wells is divided by the absorbance of drug-free wells, and the concentration of agent that results in 50% of the absorbance of untreated cultures (IC50) is determined by linear regression of logit-transformed data (D. J. Finney, Statistical Method in Biological Assay, third ed., pp.316-348, Charles Griffin Co., London, 1978). A linear relationship between tumor cell number and formazan production has been routinely observed over the range of cell densities observed in these experiments. The two standard drug controls (indicated above) are included in each assay to monitor the drug sensitivity of each of the cell lines and IC50 values are determined for each drug-cell combination.

[2] = system: PANC-1 human pancreatic cancer; assay: Antiproliferative MTT assay, PANC-1
Method: as §1, §2, §3, §4, §5

[3] = system: NCI/ADR-RES (formerly MCF-7/ADR) human breast cell line; assay: Antiproliferative MTT assay, NCI/ADR-RES; details: 72-h exposure
Method: as §1, §2, §3, §4, §5

[4] = system: Candida albicans (ATCC strain 44506); assay: Agar (disk) diffusion assay; details: 37° C., 24 hours
Method: (§6) The antifungal activity of lasonolides C and F against Candida albicans (American Type Culture Collection strain 44506) was determined through the use of both agar diffusion and broth dilution assays.
Agar diffusion assays were performed using Sabouraud Dextrose agar plates seeded with the test microbe at 10^5/ml. Disks (6.35 mm, Schliecher and Schuell) were impregnated with 25 μg of test compound, allowed to dry and then placed on the agar surface. After incubation at 37° C. for 24 hours the zones of growth inhibition were determined. A control disk containing 100IU nystatin was run on the same plate as the test compound: the zone of inhibition was 28 mm.

[5] = system: Candida albicans (ATCC strain 44506); assay: Broth dilution assay (MIC); details: 37° C.; for MIC: Candida albicans, ATCC44506, 24 h; for Minimum inhibitory concentration (MIC): 24 hours
Method: as §6
Broth dilution assays were performed as standard 96-well microtiter assays in a total volume of 50 μl with a seeding density of 10^3 cells/ml. The concentration range for test compound ranged from 50 to 3 μg/ml as two-fold dilutions. […] The Minimum inhibitory concentration (MIC) of Lasonolide F (IV) against Candida albicans in SDB broth is 50 μg/ml while in RPMI broth it is greater than 50 μg/ml.

[6] = Homo sapiens, A549, 72-h exposure
[7] = Homo sapiens, A549, 72-h exposure, value in parentheses
[8] = Homo sapiens, PANC-1, 72-h exposure
[9] = Homo sapiens, PANC-1, 72-h exposure, value in parentheses
[10] = Homo sapiens, NCI/ADR-RES, value in parentheses
[11] = 72-h exposure, value in parentheses

Compound: CCOC(=O)C(O)C/C=C\C[C@@H]1O[C@@H]2/C=C/C/C=C/C(C)=C\[C@H]3O[C@@H](C/C=C/C=C/C(=O)O[C@H](C2)[C@@]1(C)CO)C[C@H](O)[C@H]3C (some centres unmarked) [Lasonolide E (III), Lasonolide E]
- IC50 [1, 6]: 0.19 µg/mL
- IC50 [1, 7]: 310 nM
- IC50 [2, 8]: 0.35 µg/mL
- IC50 [2, 9]: 570 nM
- IC50 ([3]; Homo sapiens, NCI/ADR-RES): > 5 µg/mL
- IC50 [3, 10]: > 8000 nM

Compound: CC1=C/[C@H]2O[C@@H](C/C=C/C=C/C(=O)O[C@@H]3C[C@@H](/C=C/C\C=C\1)O[C@@H](C/C=C\CC(O)C(=O)O)[C@]3(C)CO)C[C@H](O)[C@H]2C (some centres unmarked) [Lasonolide F (IV), Lasonolide F]
- zone of inhibition at 25 µg/mL ([4]; Candida albicans, ATCC44506, tested at 25 μg/ml (disk 6.35 mm impregnated with 25 μg), read-out: growth inhibitory zone): 10 mm
- MIC ([5]; RPMI broth, read-out: Minimum inhibitory concentration (MIC)): > 50 µg/mL
- MIC ([5]; SDB broth, read-out: Minimum inhibitory concentration (MIC)): 50 µg/mL (≈ 85.2 µM)

Compound: C[C@@H]1[C@H](O)[C@@H](C)/C=C/C=C/CC/C=C/C=C/C=C/C=C/C(O[C@H]2O[C@H](C)[C@@H](O)[C@H](N)[C@@H]2O)CC2O[C@](O)(CC(O)C(O)CCC(O)CC(O)CC(O)CC(=O)O[C@H]1C)CC(O)C2C(=O)O (some centres unmarked) [nystatin, reference compound]
- zone of inhibition ([4]; control disk containing 100IU, same plate): 28 mm

Compound: CC1=C/[C@H]2O[C@@H](C/C=C/C=C/C(=O)O[C@@H]3C[C@@H](/C=C/C\C=C\1)O[C@@H](C/C=C\CCO)[C@]3(C)CO)C[C@H](O)[C@H]2C [Lasonolide D (II), Lasonolide D]
- IC50 [1, 6]: 2.4 µg/mL
- IC50 [1, 7]: 4500 nM
- IC50 [2, 8]: 2.6 µg/mL
- IC50 [2, 9]: 4900 nM
- IC50 ([3]; Homo sapiens, NCI/ADR-RES): > 5 µg/mL
- IC50 [3, 10]: > 9000 nM

Compound: Lasonolide C [Lasonolide C (I)]
- growth inhibitory zone ([4]; tested at 25 μg/ml (disk 6.35 mm impregnated with 25 μg)): 15 mm
- Minimum inhibitory concentration (MIC) ([5]; RPMI broth): 12.5 µg/mL
- Minimum inhibitory concentration (MIC) ([5]; SDB broth): 5 µg/mL
- A549 IC50 ([1]; 72-h exposure): 0.095 µg/mL
- IC50 [1, 11]: 130 nM
- PANC-1 IC50 ([2]; 72-h exposure): 0.27 µg/mL
- IC50 [2, 11]: 380 nM
- NCI ADR-RES IC50 [3]: 0.8 µg/mL
- IC50 ([3]; value in parentheses): 1120 nM

Compound: Nc1nc(=O)[nH]cc1F [5-fluorocytosine, reference compound]
- MIC ([5]; antifungal control, broth not stated, read-out: MIC): 0.62 µg/mL (≈ 4.8 µM)
